According to PubChem BioAssay (NCI):
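Grown in 96-well plates, cells were treated for 48 hours with each compound at five concentrations. Insufficient inhibition: endpoint recorded as highest concentration tested. At the GI50, growth is halved. TGI: total growth inhibition.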

Assays:
Assay in all cases: growth of human tumour cells (NCI), 48 h
[1] = tested on: A498 renal
[2] = tested on: DU-145 prostate
[3] = tested on: EKVX NSCLC
[4] = tested on: HCC-2998 colon
[5] = tested on: HS 578T breast
[6] = tested on: K-562 leukemia
[7] = tested on: M14 melanoma
[8] = tested on: M19-MEL melanoma
[9] = tested on: MDA-MB-435
[10] = tested on: MOLT-4 leukemia
[11] = tested on: NCI-H226 lung
[12] = tested on: NCI-H23 lung
[13] = tested on: NCI-H522 lung
[14] = tested on: OVCAR-8 ovarian
[15] = tested on: SK-MEL-28 melanoma
[16] = tested on: SNB-75 CNS
[17] = tested on: U251 CNS
[18] = tested on: UACC-62 melanoma
[19] = tested on: UO-31 renal

**Q.** `C[CH2][Sn]([CH2]C)([O]C(=O)c1cccc(OC)c1)[O][Sn]([CH2]C)([CH2]C)[O]C(=O)c1cccc(OC)c1` was tested. Which GI50 [1] did it give?
**A.** The GI50 was 16 µM.

**Q.** What about the TGI [1] of the same molecule?
**A.** Its TGI is 30.2 µM.

**Q.** And the GI50 [2]?
**A.** Its GI50 is > 100 µM.

**Q.** What about the TGI [2] of the same molecule?
**A.** Its TGI is > 100 µM.

**Q.** And the GI50 [3]?
**A.** The GI50 was > 40.8 µM.

**Q.** And the TGI [3]?
**A.** Its TGI is > 55.6 µM.

**Q.** And the GI50 [4]?
**A.** The GI50 was > 76 µM.

**Q.** And the TGI [4]?
**A.** The TGI was > 100 µM.

**Q.** What about the GI50 [5] of the same molecule?
**A.** Its GI50 is 29.3 µM.

**Q.** What about the TGI [5] of the same molecule?
**A.** The TGI was > 100 µM.

**Q.** And the GI50 [6]?
**A.** Its GI50 is 9.4 µM.

**Q.** What about the TGI [6] of the same molecule?
**A.** Its TGI is 60.3 µM.

**Q.** What about the GI50 [7] of the same molecule?
**A.** Its GI50 is 30.9 µM.

**Q.** And the TGI [7]?
**A.** Its TGI is > 59.4 µM.

**Q.** And the GI50 [8]?
**A.** Its GI50 is 17.1 µM.

**Q.** And the TGI [8]?
**A.** Its TGI is 31.7 µM.

**Q.** And the GI50 [9]?
**A.** Its GI50 is 18.8 µM.

**Q.** And the TGI [9]?
**A.** Its TGI is 42.4 µM.

**Q.** What about the GI50 [10] of the same molecule?
**A.** The GI50 was 27.9 µM.

**Q.** And the TGI [10]?
**A.** Its TGI is > 72.4 µM.

**Q.** What about the GI50 [11] of the same molecule?
**A.** Its GI50 is 18.4 µM.

**Q.** What about the TGI [11] of the same molecule?
**A.** The TGI was 33.2 µM.

**Q.** And the GI50 [12]?
**A.** Its GI50 is 17.6 µM.

**Q.** What about the TGI [12] of the same molecule?
**A.** Its TGI is 36.2 µM.

**Q.** What about the GI50 [13] of the same molecule?
**A.** The GI50 was 0.879 µM.

**Q.** What about the TGI [13] of the same molecule?
**A.** Its TGI is 2.4 µM.

**Q.** And the GI50 [14]?
**A.** Its GI50 is > 42.1 µM.

**Q.** And the TGI [14]?
**A.** The TGI was > 57 µM.

**Q.** And the GI50 [15]?
**A.** Its GI50 is 16.3 µM.

**Q.** And the TGI [15]?
**A.** The TGI was 35.9 µM.

**Q.** What about the GI50 [16] of the same molecule?
**A.** Its GI50 is 14.6 µM.

**Q.** What about the TGI [16] of the same molecule?
**A.** The TGI was 42.2 µM.

**Q.** And the GI50 [17]?
**A.** The GI50 was 18.6 µM.

**Q.** And the TGI [17]?
**A.** Its TGI is 35.1 µM.

**Q.** And the GI50 [18]?
**A.** Its GI50 is 16.6 µM.

**Q.** And the TGI [18]?
**A.** Its TGI is 31.4 µM.

**Q.** What about the GI50 [19] of the same molecule?
**A.** The GI50 was 34 µM.

**Q.** And the TGI [19]?
**A.** Its TGI is > 53.5 µM.
